Assay results reported in patent publication US11666575B2, “Pyrazolo[1,5]pyrimidine-based compounds and methods of their use to treat viral infections” (Lexicon Pharmaceuticals, Inc., priority 2020, dated 2023).
“And” between values parts separate entries of the source, which are not always exact repeats. Equal entries are not always repeated. Structures can show the parent of a compound that is named as a salt. Where two headings read alike, the source gives them in different places.

Key:
[1] = Cytotoxicity / viability of uninfected Huh-7 cells (XTT); settings: human, uninfected Huh-7 cells
Huh-7 cells = test: as above; settings: for Viability (A490): cytotoxic control, raw data, Huh-7; for Viability of Huh-7 Cells (A490): 6 days, individual raw data
in vitro [2] = settings: human
HCoV-OC43 = test: OC43 CPE assay in Huh-7 cells (neutral red uptake); assay type: cell-based, Human coronavirus OC43; settings: for Raw OD - Absorbance 490 nm: infected Huh-7, neutral red uptake, individual replicate; for EC50: Betacoronavirus 1, OC43, 144 h, 6 days, neutral red uptake
in vitro [3] = settings: human; remark: listed apart in the source
H292 cells (NCI-H292) = test: Cytotoxicity in uninfected H292 cells (MTT)
[4] = system: HCoV-OC43 (Betacoronavirus 1); test: microbe, parasite or virus in culture; assay type: cell-based; settings: for EC50: read-out: Efficacy
[5] = system: alpha coronavirus 229E (CoV-229E); test: Inhibition of CoV-229E-induced CPE in MRC-5 cells (XTT); settings: CPE reduction, CoV-229E in MRC-5 cells, 6 days
[6] = Betacoronavirus 1, OC43, Huh-7, 0.01 μM, average ± SD of duplicates, read-out: Inhibition of OC43 Virus-Induced CPE in Huh-7 Cells
[7] = Betacoronavirus 1, OC43, Huh-7, 0.04 μM, average ± SD of duplicates, read-out: Inhibition of OC43 Virus-Induced CPE in Huh-7 Cells
[8] = Betacoronavirus 1, OC43, Huh-7, 0.12 μM, average ± SD of duplicates, read-out: Inhibition of OC43 Virus-Induced CPE in Huh-7 Cells
[9] = Betacoronavirus 1, OC43, Huh-7, 0.4 μM, average ± SD of duplicates, read-out: Inhibition of OC43 Virus-Induced CPE in Huh-7 Cells
[10] = Betacoronavirus 1, OC43, Huh-7, 1.1 μM, average ± SD of duplicates, read-out: Inhibition of OC43 Virus-Induced CPE in Huh-7 Cells
[11] = Betacoronavirus 1, OC43, Huh-7, 10 μM, average ± SD of duplicates, read-out: Inhibition of OC43 Virus-Induced CPE in Huh-7 Cells
[12] = Betacoronavirus 1, OC43, Huh-7, 30 μM, average ± SD of duplicates, read-out: Inhibition of OC43 Virus-Induced CPE in Huh-7 Cells
[13] = Betacoronavirus 1, NCI-H292, 144 h, EC50, HCoV-OC43-infected H292 cells, MTT, 6 days
[14] = CC50, uninfected H292 cells, MTT, 6 days
[15] = Betacoronavirus 1, OC43, NCI-H292, 144 h

## CC[C@H]1CN2CCc3cc(OC)c(OC)cc3[C@@H]2C[C@@H]1C[C@H]1NCCc2cc(OC)c(OC)cc21 [Emetine]
[1]
  cytotoxicity at 6 days, 5 μM: > 90%
  viability at 6 days, 1 µM: 18.3 ± 0.3%
  viability at 6 days, 5 µM: 8.2 ± 0.7%
Huh-7 cells; 1 μm
  Viability (A490): 0.176 and 0.179
Huh-7 cells; 5 μm
  Viability (A490): 0.104 and 0.111
Huh-7 cells; tested at 5 μM, XTT
  inhibition of cell viability: more than 90%

## CCN(CC)CCNC(=O)c1c(C)[nH]c(/C=C2\C(=O)Nc3ccc(F)cc32)c1C [Sunitinib maleate, sunitinib malate]
Huh-7 cells; 0.01 μM, XTT
  Viability of Huh-7 Cells (A490): 0.721 and 0.651
Huh-7 cells; 0.04 μM, XTT
  Viability of Huh-7 Cells (A490): 0.738 and 0.751
Huh-7 cells; 0.12 μM, XTT
  Viability of Huh-7 Cells (A490): 0.719 and 0.752
Huh-7 cells; 0.37 μM, XTT
  Viability of Huh-7 Cells (A490): 0.732 and 0.765
Huh-7 cells; 1.1 μM, XTT
  Viability of Huh-7 Cells (A490): 0.676 and 0.665
Huh-7 cells; 3.3 μM, XTT
  Viability of Huh-7 Cells (A490): 0.642 and 0.601
Huh-7 cells; 10 μM, XTT
  Viability of Huh-7 Cells (A490): 0.543 and 0.554
Huh-7 cells; 30 μM, XTT
  Viability of Huh-7 Cells (A490): 0.058 and 0.055
Huh-7 cells; 90 μM, XTT
  Viability of Huh-7 Cells (A490): 0.053 and 0.054
In vitro [2]
  CC50 at 6 days: 13000 nM
  viability at 6 days, 0.01 µM: 92 ± 7.2%
  viability at 6 days, 0.04 µM: 100 ± 1.3%
  viability at 6 days, 0.12 µM: 99.1 ± 3.4%
  viability at 6 days, 0.37 µM: 101 ± 3.4%
  viability at 6 days, 1.1 µM: 89.7 ± 1.1%
  viability at 6 days, 3.3 µM: 82.6 ± 4.2%
  viability at 6 days, 10 µM: 72 ± 1.1%
  viability at 6 days, 30 µM: 0.8 ± 0.3%
  viability at 6 days, 90 µM: 0.4 ± 0.1%
HCoV-OC43; 0.01 μM
  Raw OD - Absorbance 490 nm: 0.120
HCoV-OC43; 0.04 μM
  Raw OD - Absorbance 490 nm: 0.094
HCoV-OC43; 0.4 μM
  Raw OD - Absorbance 490 nm: 0.086 and 0.090
HCoV-OC43; 1.1 μM
  Raw OD - Absorbance 490 nm: 0.094
HCoV-OC43; 3.3 μM
  Raw OD - Absorbance 490 nm: 0.312 and 0.136
HCoV-OC43; 10 μM
  Raw OD - Absorbance 490 nm: 0.214 and 0.280
HCoV-OC43; 30 μM
  Raw OD - Absorbance 490 nm: 0.051 and 0.053
HCoV-OC43; Huh-7 cells
  EC50: > 30000 nM
HCoV-OC43; Betacoronavirus 1, OC43, Huh-7, read-out: Inhibition of OC43 Virus-Induced CPE in Huh-7 Cells
  inhibition at 3.3 µM: 17.9 ± 18.5%
HCoV-OC43; [6]
  inhibition at 0.01 µM: 1.1 ± 1.9%
HCoV-OC43; [7]
  inhibition at 0.04 µM: -1.2 ± 0.4%
HCoV-OC43; [8]
  inhibition at 0.12 µM: -0.1 ± 0.4%
HCoV-OC43; [9]
  inhibition at 0.4 µM: -2.4 ± 0.4%
HCoV-OC43; [10]
  inhibition at 1.1 µM: -1 ± 0.8%
HCoV-OC43; [11]
  inhibition at 10 µM: 21.4 ± 7%
HCoV-OC43; [12]
  inhibition at 30 µM: -7.8 ± 0.2%

## CCN(CC)CCNC(=O)c1c(C)[nH]c(/C=C2\C(=O)Nc3ccc(F)cc32)c1C [Sunitinib]
In vitro [3]; uninfected MRC-5 cells
  CC50 at 6 days: 1320 nM
H292 cells (NCI-H292)
  Cytotoxicity: 10 to 50 µM
[4]; [13]
  EC50: 406 nM

## CCC(CC)COC(=O)[C@H](C)N[P@](=O)(OC[C@H]1O[C@@](C#N)(c2ccc3c(N)ncnn23)[C@H](O)[C@@H]1O)Oc1ccccc1 [Remdesivir]
In vitro [3]
  CC50 at 6 days: > 2000 nM
[5]
  EC50: 130 nM
H292 cells (NCI-H292); [14]
  Cytotoxicity: >20 µM
[4]; [15]
  EC50: 37500 nM

## COc1ncccc1-c1cnn2ccc(N3CCN(C(=O)OC4(C)COC4)CC3)nc12 [Compound 1, 3-methyloxetan-3-yl-4-(3-(2-methoxypyridin-3-yl)pyrazolo[1,5-a]pyrimidin-5-yl)piperazine-1-carboxylate]
[5]
  EC50: > 10000 nM
Huh-7 cells; 0.01 μM, XTT, listed as Compd. 1
  Viability of Huh-7 Cells (A490): 0.724 and 0.716
Huh-7 cells; 0.04 μM, XTT, listed as Compd. 1
  Viability of Huh-7 Cells (A490): 0.748 and 0.941
Huh-7 cells; 0.12 μM, XTT, listed as Compd. 1
  Viability of Huh-7 Cells (A490): 0.673 and 0.691
Huh-7 cells; 0.37 μM, XTT, listed as Compd. 1
  Viability of Huh-7 Cells (A490): 0.675 and 0.654
Huh-7 cells; 1.1 μM, XTT, listed as Compd. 1
  Viability of Huh-7 Cells (A490): 0.758 and 0.786
Huh-7 cells; 3.3 μM, XTT, listed as Compd. 1
  Viability of Huh-7 Cells (A490): 0.807 and 0.850
Huh-7 cells; 10 μM, XTT, listed as Compd. 1
  Viability of Huh-7 Cells (A490): 0.878 and 0.834
Huh-7 cells; 30 μM, XTT, listed as Compd. 1
  Viability of Huh-7 Cells (A490): 0.844 and 0.792
Huh-7 cells; 90 μM, XTT, listed as Compd. 1
  Viability of Huh-7 Cells (A490): 0.421 and 0.469
In vitro [2]
  viability at 6 days, 0.01 µM: 96.9 ± 0.8%
  viability at 6 days, 0.04 µM: 100.4 ± 0.7%
  viability at 6 days, 0.12 µM: 91.4 ± 1.8%
  viability at 6 days, 0.37 µM: 88.8 ± 2.2%
  viability at 6 days, 1.1 µM: 104 ± 2.9%
  viability at 6 days, 3.3 µM: 113 ± 4.4%
  viability at 6 days, 10 µM: 117 ± 4.5%
  viability at 6 days, 30 µM: 111 ± 5.3%
  viability at 6 days, 90 µM: 57.1 ± 4.9%
H292 cells (NCI-H292); [14]
  Cytotoxicity: >300 µM
H292 cells (NCI-H292); with increased concentrations, FIG. 6
  viability of uninfected H292 cells: did not change significantly
[4]; [13]
  EC50: 9310 nM
[4]; 6 days
  antiviral effect against β-coronavirus OC43 in H292 cells: significant antiviral effect
[4]; HCoV-OC43 infected, FIG. 6
  viability of infected H292 cells: increased with increased concentrations
HCoV-OC43; 0.01 μM, listed as Compd. 1
  Raw OD - Absorbance 490 nm: 0.102 and 0.108
HCoV-OC43; 0.04 μM, listed as Compd. 1
  Raw OD - Absorbance 490 nm: 0.100 and 0.097
HCoV-OC43; 0.12 μM, listed as Compd. 1
  Raw OD - Absorbance 490 nm: 0.092 and 0.094
HCoV-OC43; 0.4 μM, listed as Compd. 1
  Raw OD - Absorbance 490 nm: 0.087 and 0.096
HCoV-OC43; 1.1 μM, listed as Compd. 1
  Raw OD - Absorbance 490 nm: 0.102 and 0.104
HCoV-OC43; 3.3 μM, listed as Compd. 1
  Raw OD - Absorbance 490 nm: 0.105 and 0.103
HCoV-OC43; 10 μM, listed as Compd. 1
  Raw OD - Absorbance 490 nm: 0.115 and 0.117
HCoV-OC43; 30 μM, Huh-7 cells, likely due to compound-induced toxicity
  antiviral effect at 30 μM: disappeared
HCoV-OC43; 30 μM, listed as Compd. 1
  Raw OD - Absorbance 490 nm: 0.076 and 0.072
HCoV-OC43; Huh-7 cells
  EC50: > 30000 nM
HCoV-OC43; [6]
  inhibition at 0.01 µM: -0.2 ± 0.6%
HCoV-OC43; [7]
  inhibition at 0.04 µM: -0.8 ± 0.4%
HCoV-OC43; [8]
  inhibition at 0.12 µM: -1.7 ± 0.2%
HCoV-OC43; [9]
  inhibition at 0.4 µM: -1.9 ± 0.8%
HCoV-OC43; [10]
  inhibition at 1.1 µM: -0.2 ± 0.2%
HCoV-OC43; Betacoronavirus 1, OC43, Huh-7, 3.3 μM, average ± SD of duplicates, read-out: Inhibition of OC43 Virus-Induced CPE in Huh-7 Cells
  inhibition at 3.3 µM: 0%
HCoV-OC43; [11]
  inhibition at 10 µM: 1.8 ± 0.3%
HCoV-OC43; [12]
  inhibition at 30 µM: -4.5 ± 0.5%

## CCN(CC)CCCC(C)Nc1ccnc2cc(Cl)ccc12 (stereo not drawn) [Chloroquine]
[5]
  EC50: 490 nM
H292 cells (NCI-H292); [14]
  Cytotoxicity: 46.04 µM
[4]; [15]
  EC50: 400 nM
[4]; 6 days
  antiviral effect against β-coronavirus OC43 in H292 cells: antiviral effect
HCoV-OC43; 6-day assay, Huh-7 cells
  prevention of virus-induced CPE: potently prevented the virus-induced CPE
HCoV-OC43; Betacoronavirus 1, OC43, Huh-7, read-out: Inhibition of OC43 Virus-Induced CPE in Huh-7 Cells, 5 μM, control inhibitor, relative to uninfected cells (mock)
  inhibition at 5 µM: ~88%
